From US8404691B2, “Imidazothiazole derivatives having proline ring structure” (Daiichi Sankyo Company, Limited, priority 2009, dated 2013) come the findings set out here.

Usually IC50 stands for the point on the concentration scale where inhibition reaches its midpoint. Low values mean greater potency in that assay, high ones weaker potency in that assay.

The target of data set [1] is T1, Mdm2/p53 binding (Homo sapiens, UniProt Q00987, L33E).
T1 construct: Mdm2 amino acids at positions 25 to 108
In words: Mdm2/p53 binding assay (HTRF, His-p53 and GST-Mdm2). The settings on record: His-p53 (aa 1-132) and GST-Mdm2 (aa 25-108, L33E), 6.25 nM each, 25° C. for 1 hour. Here is the method: Next, a test compound was diluted with DMSO to produce protein buffer solution containing 10% dilution, and this buffer solution was added in an amount of 4 μL/well to the plate.
These dilutions were added in an amount of 8 μL/well (total reaction solution volume: 20 μl/well). Then, the plate was left at 25° C. for 1 hour.
The R value calculated from the well supplemented with His-p53, GST-Mdm2, the test compound, and each antibody was defined as R (sample). The R value calculated from the well supplemented with His-p53, GST-Mdm2, and each antibody but without the test compound was defined as R (control). The R value calculated from the well supplemented with GST-Mdm2, the test compound, and each antibody but without His-p53 was defined as R (background). T/C was calculated from the formula shown below. An IC50 value for Mdm2/p53 binding was calculated by sigmoid fitting. T/C=(R(sample)−R(background))/(R(control)−R(background))

For data set [2], the system named is human lung cancer-derived cell line NCI-H460 having wild-type p53. In words: Cell growth inhibition assay (MTT). In kind it is cell-based. The settings on record: 72 h, NCI-H460 cells, culturing 3 days, read-out: anti-cellular effect GI50 (50% growth inhibition concentration). The protocol: A cell growth inhibition assay was conducted using human lung cancer-derived cell line NCI-H460 having wild-type p53.
NCI-H460 cells were suspended in a medium (RPMI1640 medium containing 10% fetal bovine serum) and the suspension was inoculated in an amount of 500 cells/150 μL/well to a 96-well multiwell plate. A test compound was dissolved in DMSO and this solution was diluted with medium to prepare a sample solution (DMSO concentration: 1% or lower). On the next day of inoculation, medium nonsupplemented with the test compound or the sample solution was added in an amount of 50 μL/well. The MTT assay was conducted immediately after the medium was added in an amount of 50 μL on the next day of cell inoculation, and after the sample solution or the medium was added to cells followed by culturing at 37° C. for 3 days in a 5% CO2 atmosphere. The MTT assay was conducted as shown below.
A 5 mg/mL MTT (3-(4,5-dimethylthiazol-2-yl)-2,5-diphenyltetrazolium bromide, Sigma-Aldrich Co., M-2128) solution was prepared using a phosphate buffer solution (Dulbecco's Phosphate-buffered Saline). This MTT solution was added in an amount of 20 μL/well. Then, the plate was cultured at 37° C. for 4 hours in a 5% CO2 atmosphere. The plate was centrifuged at 1200 rpm for 5 minutes and then the culture supernatant was removed by aspiration using a dispenser. DMSO was added in an amount of 150 μL/well to dissolve generated formazan. The plate was stirred using a plate mixer for uniform color development from each well. The absorbance of each well was measured under conditions of OD 540 nm and reference 660 nm using a plate reader (SpectraMax PLUS384, Molecular Devices, CA, USA).
The OD value measured on the day of adding the sample solution was defined as S. The OD value measured three days after addition of the sample solution was defined as T. The OD value measured three days after addition of the DMSO dilution was defined as C. T/C (%) was determined at each concentration according to the calculation formula shown below to prepare a dose response curve, from which 50% growth inhibition concentration (GI50 value) was calculated. T/C(%)=(T−S)/(C−S)×100

Data set [3] can be described thus: Metabolic stability test (microsomal metabolism). Note: tested at 1.1 µM. The data set is classed as in vitro ADME. Conditions: human liver microsomes, 37° C., 30 minutes after addition of NADP+. The protocol: 100 μL of 100 mM phosphate buffer solution (pH 7.4) containing 3 μM test compound was added to 100 μL of reaction solution containing 100 mM phosphate buffer solution (pH 7.4), 30 mM glucose 6-phosphate, 10 mM MgCl2.6H2O, 3 units/mL glucose 6-phosphate 1-dehydrogenase, and 0.3 to 1.5 mgP/mL human liver microsomes and the mixture was incubated at 37° C. for 20 minutes. Then, 70 μL of 100 mM phosphate buffer solution (pH 7.4) containing 3 mM NADP+ was added and the mixture was further incubated at 37° C. for 30 minutes to conduct a microsomal metabolism test. The compound was quantified by the internal standard method using a quadrupole mass spectrometer connected to a high performance liquid chromatography apparatus. The metabolic stability (residual percentage of compound: MS %) was determined according to the following formula: MS(human)(%)=(peak area ratio of test compound after addition of NADP+ and incubation for 30 minutes)/(peak area ratio of test compound before addition of NADP+)×100.
(peak area ratio: peak area of test compound divided by that of internal standard substance)
Background: Liver microsomes are vesicles of endoplasmic reticulum, rich in cytochrome P450 enzymes.

T1 sequence (Q00987 25-108 L33E): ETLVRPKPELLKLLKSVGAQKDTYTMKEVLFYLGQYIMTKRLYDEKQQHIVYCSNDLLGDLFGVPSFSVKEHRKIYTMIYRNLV

`CC(C)C1=C(C(=O)N2C[C@H](F)C[C@H]2C(=O)N2CCNC3(CC3)C2)SC2=N[C@@](C)(c3ccc(Cl)nc3)[C@@H](c3ccc(Cl)c(F)c3)N21` [Example 1, 7-[(4R)-1-{[(5R,6S)-5-(4-chloro-3-fluorophenyl)-6-(6-chloropyridin-3-yl)-3-isopropyl-6-methyl-5,6-dihydroimidazo[2,1-b][1,3]thiazol-2-yl]carbonyl}-4-fluoro-L-prolyl]-4,7-diazaspiro[2.5]octane] came in with an IC50 in data set [1] of 2.8 nM. Further, the GI50 in data set [2] is less than 400 nM. Besides, the “MS (human) % (metabolic stability, residual percentage of compound)” value in data set [3] is 77%.
In the case of `CC(C)C1=C(C(=O)N2C[C@H](F)C[C@H]2C(=O)N2CC3(CC3)NC[C@@H]2C)SC2=N[C@@](C)(c3ccc(Cl)nc3)[C@@H](c3ccc(Cl)c(F)c3)N21` [Example 2, (6S)-7-[(4R)-1-{[(5R,6S)-5-(4-chloro-3-fluorophenyl)-6-(6-chloropyridin-3-yl)-3-isopropyl-6-methyl-5,6-dihydroimidazo[2,1-b][1,3]thiazol-2-yl]carbonyl}-4-fluoro-L-prolyl]-6-methyl-4,7-diazaspiro[2.5]octane], the “MS (human) % (metabolic stability, residual percentage of compound)” value in data set [3] came to 100%.
Still for that read-out and setting: to `CC(C)C1=C(C(=O)N2C[C@H](F)C[C@H]2C(=O)N2CC3(CC3)NC[C@H]2C)SC2=N[C@@](C)(c3ccc(Cl)nc3)[C@@H](c3ccc(Cl)c(F)c3)N21` [Example 3, (6R)-7-[(4R)-1-{[(5R,6S)-5-(4-chloro-3-fluorophenyl)-6-(6-chloropyridin-3-yl)-3-isopropyl-6-methyl-5,6-dihydroimidazo[2,1-b][1,3]thiazol-2-yl]carbonyl}-4-fluoro-L-prolyl]-6-methyl-4,7-diazaspiro[2.5]octane] belongs 68%; to `CC[C@H]1CNC2(CC2)CN1C(=O)[C@@H]1C[C@@H](F)CN1C(=O)C1=C(C(C)C)N2C(=N[C@@](C)(c3ccc(Cl)nc3)[C@H]2c2ccc(Cl)c(F)c2)S1` [Example 4, (6S)-7-[(4R)-1-{[(5R,6S)-5-(4-chloro-3-fluorophenyl)-6-(6-chloropyridin-3-yl)-3-isopropyl-6-methyl-5,6-dihydroimidazo[2,1-b][1,3]thiazol-2-yl]carbonyl}-4-fluoro-L-prolyl]-6-ethyl-4,7-diazaspiro[2.5]octane], 100%.
Regarding `CC[C@@H]1CN(C(=O)C(F)(F)F)C2(CC2)CN1C(=O)[C@@H]1C[C@@H](F)CN1C(=O)C1=C(C(C)C)N2C(=N[C@@](C)(c3ccc(Cl)nc3)[C@H]2c2ccc(Cl)c(F)c2)S1` [Example 5, (6R)-7-[(4R)-1-{[(5R,6S)-5-(4-chloro-3-fluorophenyl)-6-(6-chloropyridin-3-yl)-3-isopropyl-6-methyl-5,6-dihydroimidazo[2,1-b][1,3]thiazol-2-yl]carbonyl}-4-fluoro-L-prolyl]-6-ethyl-4-(trifluoroacetyl)-4,7-diazaspiro[2.5]octane], the IC50 in data set [1] came to 5.3 nM. Moreover, the GI50 in data set [2] is less than 400 nM.
For the molecule `CC[C@@H]1CNC2(CC2)CN1C(=O)[C@@H]1C[C@@H](F)CN1C(=O)C1=C(C(C)C)N2C(=N[C@@](C)(c3ccc(Cl)nc3)[C@H]2c2ccc(Cl)c(F)c2)S1` [Example 6, (6R)-7-[(4R)-1-{[(5R,6S)-5-(4-chloro-3-fluorophenyl)-6-(6-chloropyridin-3-yl)-3-isopropyl-6-methyl-5,6-dihydroimidazo[2,1-b][1,3]thiazol-2-yl]carbonyl}-4-fluoro-L-prolyl]-6-ethyl-4,7-diazaspiro[2.5]octane], in data set [3], the “MS (human) % (metabolic stability, residual percentage of compound)” value is listed as 69%.
`CC(C)C[C@@H]1CNC2(CC2)CN1C(=O)[C@@H]1C[C@@H](F)CN1C(=O)C1=C(C(C)C)N2C(=N[C@@](C)(c3ccc(Cl)nc3)[C@H]2c2ccc(Cl)c(F)c2)S1` [Example 7, (6R)-7-[(4R)-1-{[(5R,6S)-5-(4-chloro-3-fluorophenyl)-6-(6-chloropyridin-3-yl)-3-isopropyl-6-methyl-5,6-dihydroimidazo[2,1-b][1,3]thiazol-2-yl]carbonyl}-4-fluoro-L-prolyl]-6-isobutyl-4,7-diazaspiro[2.5]octane]: the IC50 in data set [1] came out at 3.6 nM. The GI50 in data set [2] lay in the range of 400 to 2500 nM. Moreover, the “MS (human) % (metabolic stability, residual percentage of compound)” value in data set [3] is on record as 100%.
Molecule `CC(C)C1=C(C(=O)N2C[C@H](F)C[C@H]2C(=O)N2CC3(CC3)NCC23CC3)SC2=N[C@@](C)(c3ccc(Cl)nc3)[C@@H](c3ccc(Cl)c(F)c3)N21` [Example 8, 4-[(4R)-1-{[(5R,6S)-5-(4-chloro-3-fluorophenyl)-6-(6-chloropyridin-3-yl)-3-isopropyl-6-methyl-5,6-dihydroimidazo[2,1-b][1,3]thiazol-2-yl]carbonyl}-4-fluoro-L-prolyl]-4,9-diazaspiro[2.2.2.2]decane] registered an IC50 in data set [1] of 2.2 nM. Besides, the GI50 in data set [2] was less than 400 nM. Further, in data set [3], the “MS (human) % (metabolic stability, residual percentage of compound)” value worked out at 95%.
In the case of `CC(C)C1=C(C(=O)N2CC(F)(F)C[C@H]2C(=O)N2CC3(CC3)NC[C@@H]2C)SC2=N[C@@](C)(c3ccc(Cl)nc3)[C@@H](c3ccc(Cl)c(F)c3)N21` [Example 9, (6S)-7-(1-{[(5R,6S)-5-(4-chloro-3-fluorophenyl)-6-(6-chloropyridin-3-yl)-3-isopropyl-6-methyl-5,6-dihydroimidazo[2,1-b][1,3]thiazol-2-yl]carbonyl}-4,4-difluoro-L-prolyl)-6-methyl-4,7-diazaspiro[2.5]octane], the half-inhibitory concentration (IC50) in data set [1] amounted to 4.1 nM. Also, the GI50 in data set [2] is less than 400 nM. The “MS (human) % (metabolic stability, residual percentage of compound)” value in data set [3] turned out to be 80%.
The molecule `CC(C)C1=C(C(=O)N2CC(F)(F)C[C@H]2C(=O)N2CC3(CC3)NC[C@H]2C)SC2=N[C@@](C)(c3ccc(Cl)nc3)[C@@H](c3ccc(Cl)c(F)c3)N21` [Example 10, (6R)-7-(1-{[(5R,6S)-5-(4-chloro-3-fluorophenyl)-6-(6-chloropyridin-3-yl)-3-isopropyl-6-methyl-5,6-dihydroimidazo[2,1-b][1,3]thiazol-2-yl]carbonyl}-4,4-difluoro-L-prolyl)-6-methyl-4,7-diazaspiro[2.5]octane] gave an IC50 in data set [1] of 14 nM. Further, the GI50 in data set [2] is less than 400 nM. The “MS (human) % (metabolic stability, residual percentage of compound)” value in data set [3] turned out to be 48%.
Regarding `CC(C)C1=C(C(=O)N2C[C@H](F)C[C@H]2C(=O)N2CC3(CC3)NC[C@@H]2C)SC2=N[C@@](C)(c3ccc(Cl)cc3)[C@@H](c3ccc(Cl)c(F)c3)N21` [Example 24], the GI50 in data set [2] was less than 400 nM. Also, the “MS (human) % (metabolic stability, residual percentage of compound)” value in data set [3] was 89%.
For `CC(C)C1=C(C(=O)N2C[C@H](F)C[C@H]2C(=O)N2CC3(CC3)NC[C@H]2C)SC2=N[C@@](C)(c3ccc(Cl)cc3)[C@@H](c3ccc(Cl)c(F)c3)N21` [Example 25], in that order: less than 400 nM and 47%.
